Experimental data taken from article PMC5485989, “Role of Free Radicals and Biotransformation in Trichloronitrobenzene-Induced Nephrotoxicity In Vitro” (International Journal of Molecular Sciences, 2017).
Where “and” joins values, the source holds several entries; their conditions need not be identical. Equal entries are not always repeated. Marks after values point to notes of the source that are not given here.

Legend:
[1] = tested on: isolated renal cortical cells (IRCC); experiment: Effect of antioxidant or biotransformation inhibitor pretreatment on TCNB cytotoxicity, LDH release in IRCC; conditions: for Effect of pretreatment on 3,4,5-TCNB cytotoxicity: 0.5 mM 3,4,5-TCNB, 30 min exposure; for Effect of pretreatment on 3,4,5-TCNB cytotoxicity / Effect of pretreatment on 2,3,4-TCNB cytotoxicity / Effect of pretreatment on 2,4,5-TCNB cytotoxicity / Effect of pretreatment on 2,4,6-TCNB cytotoxicity: IRCC; for Effect of pretreatment on 2,3,4-TCNB cytotoxicity: 1.0 mM 2,3,4-TCNB, 60 min exposure; for % of lactate dehydrogenase release, PreTx: pretreatment compound alone, no TCNB; for Effect of pretreatment on 2,4,5-TCNB cytotoxicity: 1.0 mM 2,4,5-TCNB; for Effect of pretreatment on 2,4,5-TCNB cytotoxicity / Effect of pretreatment on 2,4,6-TCNB cytotoxicity: 90 min exposure; for Effect of pretreatment on 2,4,6-TCNB cytotoxicity: 1.0 mM 2,4,6-TCNB
Method: Untreated rats were anesthetized with pentobarbital (75 mg/kg, i.p.) and isolated renal cortical cells (IRCC) were obtained by using the collagenase perfusion method. Initial cell viability was determined by measuring trypan blue (2% w/v) exclusion and lactate dehydrogenase (LDH) release. […] IRCC were then exposed to various concentrations of a TCNB (0, 0.5, or 1.0 mM) for 15, 30, 60, 90, or 120 min. Following the incubation period, flasks were removed and placed on ice. Samples (0.5 mL) were taken for LDH release assays. Briefly, the samples were centrifuged (3000× g, 3 min), the was supernatant decanted and saved, and the pellet was disrupted with 1 mL of 10% Triton X-100 solution to release cellular LDH activity. LDH activity was then determined in each fraction (supernatant and pellet) as previously described using a kinetic assay based on the amount of NADH produced from NAD [57]. The LDH released was expressed as % of total (supernatant plus pellet).
Concentrations used in these experiments were 0.5 mM (3,4,5-TCNB) or 1.0 mM (2,3,4-, 2,4,5- and 2,4,6-TCNB). Incubation times with a TCNB added were 30 min (3,4,5-TCNB), 60 min (2,3,4-TCNB), or 90 min (2,4,5- and 2,4,6-TCNB). The pretreatment times and concentrations for all of the pretreatments are shown below in Table 5.

[2] = tested on: isolated renal cortical cells (IRCC); experiment: Time and concentration cytotoxicity study, LDH release in IRCC; type: cell-based, male Fischer 344 rats; conditions: for Cytotoxicity (LDH release), time and concentration response: 0.5 or 1.0 mM, 15-120 min, significant difference from DMSO control, p < 0.05
Method: To determine the comparative nephrotoxic potential of the four TCNBs in IRCC, a time and concentration response study was performed starting at 15 min and 0.5 or 1.0 mM and adjusting the times tested based on the results (Figure 2).

renal cortical slices = conditions: cited from earlier work
kidney = tested on: kidney; parameters: method as in PMID 2576285; conditions: 1.0 mmol/kg, intraperitoneally, cited from earlier work
[3] = Table 1 experiments, 60 min incubation, mean ± S.E., n = 4
[4] = Table 2 experiments, 90 min incubation, mean ± S.E., n = 4
[5] = Table 3 experiments, 90 min incubation, mean ± S.E., n = 4
[6] = pretreatment compound followed by 1.0 mM 2,3,4-TCNB, 60 min, mean ± S.E., n = 4
[7] = pretreatment compound followed by 1.0 mM 2,4,5-TCNB, 90 min, mean ± S.E., n = 4
[8] = pretreatment compound followed by 1.0 mM 2,4,6-TCNB, 90 min, mean ± S.E., n = 4

SMILES | Effect of pretreatment on 3,4,5-TCNB cytotoxicity [1] | Effect of pretreatment on 2,3,4-TCNB cytotoxicity [1] | % of lactate dehydrogenase release, PreTx [1, 3] | % of lactate dehydrogenase release, PreTx [1, 4] | % of lactate dehydrogenase release, PreTx [1, 5] | % of lactate dehydrogenase release, PreTx + TCNB [1, 6] | % of lactate dehydrogenase release, PreTx + TCNB [1, 7] | % of lactate dehydrogenase release, PreTx + TCNB [1, 8] | Effect of pretreatment on 2,4,6-TCNB cytotoxicity [1] | other results
CCCCOCCOCCOCc1cc2c(cc1CCC)OCO2 [PiBx, Piperonyl butoxide] | reduced | reduced | 10 ± 1% | 11 ± 2% | 13 ± 1% | 12 ± 1 ^c,d % | 24 ± 3 ^c % | 22 ± 1 ^c % |  | 
NNC(=O)c1ccncc1 [Isoniazid] | at least some attenuation | reduced | 11 ± 1% | 10 ± 1% |  | 19 ± 1 ^c,d % | 34 ± 1 ^c,d % | 28 ± 2 ^c % |  | 
CCN(CC)C(=S)S [diethyldithiocarbamate, Diethyldithiocarbamate] | at least some attenuation |  |  |  |  |  |  |  |  | 
O=[N+]([O-])c1cc(Cl)c(Cl)cc1Cl [2,4,5-TCNB] |  |  |  |  |  |  |  |  |  | Cytotoxicity (LDH release), time and concentration response [2]: induced cytotoxicity at 90 min (0.5 mM) and 120 min (0.5 and 1.0 mM), but not at 60 min with either concentration
N[C@@H](CCC(=O)N[C@@H](CS)C(=O)NCC(=O)O)C(=O)O [Glutathione] | attenuation of 3,4,5-TCNB cytotoxicity | attenuation of 2,3,4-TCNB cytotoxicity | 13 ± 1% | 15 ± 1% |  | 14 ± 1 ^d % | 17 ± 2 ^d % | 20 ± 1 ^c,d % | attenuation of 2,4,6-TCNB cytotoxicity | Effect of pretreatment on 2,4,5-TCNB cytotoxicity [1]: attenuation of 2,4,5-TCNB cytotoxicity
O=C(O)CC(S)C(=O)O (centres unmarked) [Mercaptosuccinate] | reduced | reduced | 10 ± 1% | 17 ± 1 ^c % | 16 ± 1% | 10 ± 1 ^d % | 24 ± 1 ^c % | 31 ± 1 ^c % |  | 
Cc1c(C)c2c(c(C)c1O)CC[C@@](C)(CCC[C@H](C)CCC[C@H](C)CCCC(C)C)O2 [α–Tocopherol, α-Tocopherol] | attenuation of 3,4,5-TCNB cytotoxicity | attenuation of 2,3,4-TCNB cytotoxicity | 11± 1% | 13 ± 1% | 14 ± 1% | 12 ± 2 ^d % | 14 ± 3 ^d % | 25 ± 2 ^c % | not reduced | Effect of pretreatment on 2,4,5-TCNB cytotoxicity [1]: attenuation of 2,4,5-TCNB cytotoxicity
CCCCCCCCN [n-Octylamine, N-Octylamine] | reduced | reduced | 16 ± 1 ^c % | 11 ± 2% | 11 ± 1% | 19 ± 1 ^c,d % | 32 ± 2 ^c % | 29 ± 3 ^c % |  | 
CC(C)(C(=O)c1cccnc1)c1cccnc1 [Metyrapone] | reduced |  | 12 ± 1% | 16 ± 1 ^c % | 15 ± 1% | 17 ± 1 ^c % | 28 ± 2 ^c % | 27 ± 2 ^c % | reduced | 
CC(=O)N[C@@H](CS)C(=O)O [NAC, N-acetyl-L-cysteine] | attenuation of 3,4,5-TCNB cytotoxicity | attenuation of 2,3,4-TCNB cytotoxicity | 13± 1% | 15 ± 1% | 13 ± 1% | 16 ± 1 ^c,d % | 17 ± 1 ^d % | 23 ± 2 ^c % | not reduced | Effect of pretreatment on 2,4,5-TCNB cytotoxicity [1]: attenuation of 2,4,5-TCNB cytotoxicity
O=C1O[C@H]([C@@H](O)CO)C(O)=C1O [Ascorbate] | attenuation of 3,4,5-TCNB cytotoxicity | attenuation of 2,3,4-TCNB cytotoxicity | 12 ± 1% | 12 ± 1% |  | 14 ± 1 ^d % | 16 ± 2 ^d % | 17 ± 2 ^c,d % | attenuation of 2,4,6-TCNB cytotoxicity | Effect of pretreatment on 2,4,5-TCNB cytotoxicity [1]: attenuation of 2,4,5-TCNB cytotoxicity
O=[N+]([O-])c1c(Cl)cc(Cl)cc1Cl [2,4,6-TCNB] |  |  |  |  |  |  |  |  |  | Cytotoxicity (LDH release), time and concentration response [2]: cytotoxicity was observed at 30 and 60 min (0.5 and 1.0 mM) but not at 15 min with either concentration; Concentration at which cytotoxicity was evident ([2]; as early as 30 min): 500 µM
O=[N+]([O-])c1ccc(Cl)c(Cl)c1 [3,4-DCNB, 3,4-dichloronitrobenzene] |  |  |  |  |  |  |  |  |  | Lowest concentration reducing pyruvate-stimulated gluconeogenesis and increasing LDH release (renal cortical slices): 0.5 mM
COc1ccc2c(c1)c(CC(=O)O)c(C)n2C(=O)c1ccc(Cl)cc1 [Indomethacin] | reduced | reduced | 13 ± 1% | 16 ± 2% | 16 ± 1 ^c % | 16 ± 2 ^c,d % | 21 ± 2 ^c % | 21 ± 1 ^c,d % | reduced | 
Cn1cc[nH]c1=S [Methimazole] | reduced | reduced | 9 ± 1% | 14 ± 2% | 17 ± 1% | 11 ± 1 ^d % | 23 ± 2 ^c % | 31 ± 2 ^c % | reduced | 
Nc1ccc(S(=O)(=O)Nc2ccnn2-c2ccccc2)cc1 [sulfaphenazole, Sulfaphenazole] | at least some attenuation |  |  |  |  |  |  |  |  | 
O=[N+]([O-])c1ccc(Cl)c(Cl)c1Cl [2,3,4-TCNB, 2,3,4-trichloronitrobenzene] |  |  |  |  |  |  |  |  |  | Cytotoxicity (LDH release), time and concentration response [2]: exhibited cytotoxicity starting after 15 min (1.0 mM) and 60 min exposure (0.5 and 1.0 mM), but no cytotoxicity was observed at 15 min; % of lactate dehydrogenase release, 2,3,4-TCNB ([1]; 1.0 mM 2,3,4-TCNB alone, 60 min, one value per pretreatment experiment, mean ± S.E., n = 4): 28 ± 2 ^c % and 21 ± 1 ^c % and 22 ± 1 ^c % and 18 ± 1 ^c % and 20 ± 2 ^c % and 23 ± 2 ^c % and 20 ± 1 ^c % and 19 ± 1 ^c %; Lowest concentration inducing in vitro nephrotoxicity (increased LDH release and decreased pyruvate-stimulated gluconeogenesis) (renal cortical slices; 120 min incubations): 0.5 mM
S=P(N1CC1)(N1CC1)N1CC1 [thio-tepa, Thio-tepa] | at least some attenuation |  |  |  |  |  |  |  |  | 
O=[N+]([O-])c1ccc(Cl)cc1 [4-chloronitrobenzene] |  |  |  |  |  |  |  |  |  | Renal effects (kidney; 48 h after treatment): induced diuresis, increased N-acetyl-β-D-glucosaminidase excretion, and caused swelling of the kidney; Urinary creatinine and blood urea nitrogen (BUN) concentrations (kidney): not altered
